ChEMBL document CHEMBL1149919, “Inhibition of human rhinovirus 3C protease by homophthalimides” (Bioorg Med Chem Lett, 1997)

What was measured:
[1] = target: T1, Human rhinovirus A protease (Human rhinovirus sp.) (UniProt Q4U254); experiment: Inhibition of Protease 3C of HRV-14 (human rhinovirus); design: concentration or dose not given beside the values; details: Rhinovirus B; concentration not given here
T1 sequence (whole entry): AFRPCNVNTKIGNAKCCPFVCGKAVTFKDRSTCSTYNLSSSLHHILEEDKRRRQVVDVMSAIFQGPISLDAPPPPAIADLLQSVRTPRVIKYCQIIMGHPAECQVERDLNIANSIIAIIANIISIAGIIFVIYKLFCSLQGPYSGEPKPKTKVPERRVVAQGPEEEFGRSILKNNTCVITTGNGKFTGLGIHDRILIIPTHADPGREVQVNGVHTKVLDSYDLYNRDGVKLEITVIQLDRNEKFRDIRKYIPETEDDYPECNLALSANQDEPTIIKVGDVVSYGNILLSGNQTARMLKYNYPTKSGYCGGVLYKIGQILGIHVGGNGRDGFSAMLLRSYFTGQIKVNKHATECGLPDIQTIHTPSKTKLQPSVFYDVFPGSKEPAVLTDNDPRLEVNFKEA

[2] = tested on: HeLa; experiment: Antiviral activity in a one-cycle viral replication assay against HRV-14 (human rhinovirus) infected HeLa cells; format: functional, cell-based
[3] = Cytotoxic effect against HeLa cell line measured by XTT assay; format: cell-based; details: human, HeLa cells; read-out: TC50 (the source's name)
[4] = target: T2, Human rhinovirus A protease (Human rhinovirus sp., UniProt Q4U254); experiment: The compound was tested for the inhibitory activity against HRV-14 (human rhinovirus) Protease 3C
T2 sequence (Q4U254 whole entry): T1 sequence (whole entry)

[5] = Therapeutic index was determined; details: read-out: TI

| SMILES | inhibition [1] | IC50 [2] | CC50 [3] | IC50 [4] | selectivity ratio [5] |
| --- | --- | --- | --- | --- | --- |
| CS(=O)(=O)CCN1C(=O)Cc2ccccc2C1=O | 6% |  |  |  |  |
| O=C(O)CCN1C(=O)Cc2ccccc2C1=O | 0% |  |  |  |  |
| CS(=O)(=O)CCN1C(=O)c2ccccc2C(CC(=O)c2ccccc2)C1=O (stereo unspecified) | 100% | 8.5 µM | 70.5 µM | 22.1 µM | 8.3 |
| CN1C(=O)c2ccccc2C(CC(=O)c2ccc(F)cc2)C1=O (stereo unspecified) | 72% | > 10 µM | > 100 µM | 41.1 µM |  |
| CCOC(=O)CCN1C(=O)c2ccccc2C(CC(=O)c2ccccc2)C1=O (stereo unspecified) | 71% | 6 µM | > 100 µM | 55.3 µM | 16.7 |
| CS(=O)(=O)CCCN1C(=O)c2ccccc2C(CC(=O)c2ccccc2)C1=O (stereo unspecified) | 70% | > 10 µM | > 100 µM | 25 µM |  |
| CSCCN1C(=O)Cc2ccccc2C1=O | 13% |  |  |  |  |
| NC(=O)CCN1C(=O)Cc2ccccc2C1=O | 11% |  |  |  |  |
| CN1C(=O)Cc2ccccc2C1=O | 14% |  |  |  |  |
| CCOC(=O)CCN1C(=O)Cc2ccccc2C1=O | 13% |  |  |  |  |
| CSCCCN1C(=O)Cc2ccccc2C1=O | 16% |  |  |  |  |
| CSCCCN1C(=O)c2ccccc2C(CC(=O)c2ccccc2)C1=O (stereo unspecified) | 35% | > 10 µM | 63 µM | 131 µM |  |
| C[S+]([O-])CCN1C(=O)Cc2ccccc2C1=O (stereo unspecified) | 19% |  |  |  |  |
| CCOC(=O)CCN1C(=O)c2ccccc2C(C(C)=O)C1=O (stereo unspecified) | 8% |  |  |  |  |
